From patent publication US20210317111A1, “NOVEL MEDICAMENT FOR TREATING INFLAMMATORY BOWEL DISEASE” (OTSUKA PHARMACEUTICAL CO., LTD., priority 2018, published 2021)
In brackets after ≈: the same amount, converted by molar mass.

What was measured:
[1] = test system: TNF-α production; assay: inhibition of LPS-induced TNF-α production in human peripheral blood (ELISA); type: cell-based; conditions: human peripheral blood, 24 hours; for inhibitory activity for TNF-α production over concentration range: 1, 3, 10, 30, 100 μM
Protocol: The LPS solution which was adjusted to 2 μg/mL with RPMI 1640 medium was added to 48-well plate in the amount of 250 μL/well. The each diluted solution of each test compound and the diluted solution of the solvent control were added to 3 wells for each concentration in the amount of 50 μL/well, 4-fold diluted solution of human peripheral blood was added to each well (200 μL/well), and the wells were incubated at 37° C. in 5% CO2 for 24 hours. As LPS (−) control, RPMI 1640 medium without added LPS was prepared in the same manner. The final concentrations of each test sample were adjusted to 0, 1, 3, 10, 30, and 100 μM, and the final concentration of prednisolone was adjusted to 0.3 μM. 24 hours later from the incubation, each supernatant was collected and stored at −80° C. until the measurement of the TNF-α concentration.
The TNF-α concentration was measured by ELISA with Human TNF-alpha Quantikine ELISA Kit (R & D Systems). Each sample was unfrozen at room temperature, and diluted with Calibrator Diluent RD6-35 (1×) of the kit by 10-fold. The 10-fold diluted supernatant and the TNF-α standard solution were added on TNF-α microplate, and reacted according to the operating manual of the kit. After the coloring, the absorbance at wave length of 450 nm was measured with a microplate reader (Multiskan FC; Thermo Fisher […]), and the calibration curve was prepared with an analysis software (Skanit Software 3.1.0.4 RE for Multiskan FC (ja)) to read the TNF-α concentration of each sample. Calibration curve used a 4-parameter logistic curve.
The inhibition rates were presented as the mean±standard deviation using Microsoft Excel 2010. For each blood donor, the TNF-α production rate under each compound concentration was calculated with the TNF-α concentration in the supernatant of the solvent group as 100%.
The results are averages of the measurements obtained from the human peripheral blood of three volunteers.

[2] = test system: Mycobacterium avium subspecies paratuberculosis (MAP); assay: antibacterial activity (MIC), broth microdilution method; type: cell-based; conditions: 336 h
Protocol: The chronic enterocolitis of ruminants which is caused by Mycobacterium avium subspecies paratuberculosis (MAP) is similar to Crohn's disease. […] Thus, the antibacterial activity of the present compound against MAP was evaluated. The used comparative drugs for the present compound were rifaximin (RFX), ciprofloxacin (CPFX), metronidazole (MTZ), clarithromycin (CAM), rifabutin (RBT), and clofazimine (CFZ).
The antibacterial activity (minimum inhibitory concentration (MIC)) was assayed by broth microdilution method which is based on Clinical and laboratory standards institute (CLSI).
The 5 strains of MAP were inoculated onto Middlebrook 7H9 agar containing 10% dubos oleic albumin complex (OADC), Tween 80 (0.5 g/L), mycobactin J (2 mg/L), and 1.5% agar, and pre-cultured at 37° C. under an aerobic condition for 14 days. After the pre-culture, the bacterial cell was scraped out from the agar, and prepared to the turbidity of 0.5 Mcfarland standard using Middlebrook 7H9 broth containing 10% dubos oleic albumin complex (OADC), Tween 80 (0.5 g/L), and mycobactin J (2 mg/L)]. The 10-fold diluted solution of the bacterial suspension was inoculated onto Middlebrook 7H9 broth 96-well plate which contains the present compound or any one of the comparative drugs, and incubated at 37° C. under an aerobic condition for 14 days.
After the incubation, the bacterial growth in each well of the 96-well plate was visually checked. The minimum concentration at which the bacterial growth was not observed, compared with the result of the well containing neither present compound nor comparative drug was determined as MIC of the present compound or each comparative drug against each test bacterium.

[3] = test system: naive T cell transfer model of colitis; assay: naive T cell transfer model of colitis (Crohn's disease mouse model), histological scoring of large intestine; type: in vivo; conditions: from 2nd week after transplantation for 2 weeks; present compound, CPFX, RFX oral once a day 10 mg/kg; antibody 25 mg/kg i.p. twice a week; 4th week
Source text: From spleen of Balb/c mouse, naive T cell (CD4+CD62L+CD44−) was isolated with antibody-coated magnetic beads. The isolated naive T cell (5×10^5 cells/mouse) was transplanted in abdominal cavity of SCID mouse which is a severe combined immunodeficiency animal. The present compound was orally administered to the mouse once a day at each dose defined in Table 1 below, from the first day of the transplantation for Test 1, or from the 2nd week after the transplantation for Test 2, until 5 weeks after the transplantation. [table] […] The anti-TNF-α antibody was intraperitoneally administered to the mouse twice a week at each dose defined in Table 2 below, from the 2nd week after the transplantation, for 2 weeks. [table] At 5th week for Tests 1 and 2, and at 4th week for Test 3, the large intestine was removed, and the length and weight of the large intestine were measured. In addition, the large intestine was fixed with formalin to carry out pathological analysis. From the removed large intestine, the anus part, the center part, and the cecal part were cut out each in about 0.5 cm, and each part was fixed with formalin. The paraffin block thereof was prepared, sliced, and subjected to H&E staining. The H&E stained slice was examined with a microscope to score it histologically. The histological scoring was carried out by scoring the inflammatory cell infiltrate, the Goblet cell loss, and the hyperplasia of mucosal epithelium, based on the standard (0-4) defined in Table 3 below. [table]

[4] = test system: Fusobacterium spp.; assay: antibacterial activity (MIC), agar plate dilution method; type: cell-based; conditions: 17 strains of Fusobacterium spp.; anaerobic, 37° C.
Protocol: There are plural reports about the relationship between intestinal bacteria and inflammatory bowel disease, and it is thought that Fusobacterium spp., one of the intestinal bacteria is a pathogenic bacteria causing inflammatory bowel disease. […] The antibacterial activity (minimum inhibitory concentration (MIC)) was assayed by agar plate dilution method which is based on Clinical and laboratory standards institute (CLSI). The medium used herein was Brucella medium with sheep blood. […] The bacterial suspension was inoculated onto Brucella agar with sheep blood which contains the present compound or any one of the comparative drugs, and incubated at 37° C. under an anaerobic condition.

[5] = test system: TNBS-induced enteritis; assay: TNBS-induced enteritis model; type: in vivo, rat; conditions: 100 mg/kg orally twice a day; 12 rats per group
Protocol: An enteritis animal model induced with 2,4,6-trinitrobenzenesulfonic acid (TNBS) is widely used as Crohn's disease model since the inflammatory finding is pathologically similar to that of human Crohn's disease. In addition, the enteritis model was used in the non-clinical study of mesalazine that is a medicament for treating Crohn's disease. Thus, this enteritis model was used as Crohn's disease model for evaluating the present compound.
Rats were made to be fasted for 24 or 48 hours, and the body weight were measured. The rats were laparotomized under isoflurane anesthesia, and 50% ethanol (0.25 mL) containing 60 mg/mL 2,4,6-trinitrobenzenesulfonic acid (TNBS) was injected into the large intestine from the cecum side toward the anal side to induce the injury. Each group composed of 12 rats was set, and vehicle, the present compound, or salazosulfapyridine (SASP) which is an already-existing drug for treating inflammatory bowel disease were administered for 7 days from the first day after the injection of TNBS. On the 8th day, each rat was laparotomized under anesthesia and killed by exsanguination. The large intestine was removed from the anus to the cecum, the large intestine was longitudinally incised, and the incised large intestine was washed with a cold saline. The lesion area of the large intestine was photographed with a digital camera. The area of the lesion area in the photograph of the large intestine was measured using image analyzing program.
Each compound was orally administered at a dose of 100 mg/kg twice a day from one day after inducing enteritis with TNBS. Each area of the lesion area on the 8th day was compared.

[6] = test system: DSS-induced colitis; assay: DSS-induced colitis model, stool scores; type: in vivo, rat
Source text: A colitis model induced by dextran sulfate sodium (DSS) is widely used as an experimental ulcerative colitis model having similarities of human ulcerative colitis regarding suppression of weight gain, colitis symptoms such as bloody stools and diarrhea, and injury formation in the large intestine. The effect of the present compound on the ulcerative colitis model was examined, and it was compared with salazosulfapyridine (SASP) clinically used as a therapeutic agent for ulcerative colitis.
Symptoms of colitis were induced by allowing rats to freely drink 3% dextran sulfate sodium (DSS) solution for 10 days. […] For the observation of stool symptoms, the degree of stool condition was scored as the score of stool firmness (Stool Consistency Score: 0, 1, 2, 3) and blood stool (Bloody Stool Score: 0, 1, 2, 3). The total of Stool Consistency Score and Bloody Stool Score was taken as the Total Stool Score. Each group was composed of 8 animals. Salazosulfapyridine (SASP), which is an already-existing drug for treating inflammatory bowel disease, the present compound or the vehicle were administrated for 10 days from the start date of 3% DSS freely drinking.

[7] = 11th day, present compound 1, 3, 10 mg/kg (P<0.01) or SASP 100 mg/kg (P<0.05) orally twice a day, Dunnett's test

Nc1ccc(O)c(C(=O)O)c1 [5-ASA, 5-aminosalicylic acid]
inhibitory activity for TNF-α production over concentration range [1]: no inhibitory activity

CC[C@H]1OC(=O)[C@H](C)[C@@H](O[C@H]2C[C@@](C)(OC)[C@@H](O)[C@H](C)O2)[C@H](C)[C@@H](O[C@@H]2O[C@H](C)C[C@H](N(C)C)[C@H]2O)[C@](C)(OC)C[C@@H](C)C(=O)[C@H](C)[C@@H](O)[C@]1(C)O [CAM, clarithromycin]
MIC [2]: 0.12 to 0.25 µg/mL (≈ 0.16 to 0.334 µM)

CC(C)/N=c1\cc2n(-c3ccc(Cl)cc3)c3ccccc3nc-2cc1Nc1ccc(Cl)cc1 [CFZ, clofazimine]
MIC [2]: 0.12 to 0.5 µg/mL (≈ 0.253 to 1.06 µM)

O=C(O)c1cn(C2CC2)c2cc(N3CCNCC3)c(F)cc2c1=O [CPFX, ciprofloxacin]
histological score (Test 3, comparative study) [3]: little or no inhibitory effect | MIC [4]: 2 to 8 µg/mL (≈ 6.04 to 24.1 µM) | MIC [2]: 0.25 to 0.5 µg/mL (≈ 0.754 to 1.51 µM) | inhibition at 100 µM ([1]; 100 μM, read-out: inhibitory effect on TNF-α production at 100 μM): < 50% | inhibitory activity for TNF-α production over concentration range [1]: dose-dependent inhibitory effect at a concentration of 30 μM or more

Cc1ncc([N+](=O)[O-])n1CCO [MTZ, metronidazole]
MIC [4]: 0.03 to 0.5 µg/mL (≈ 0.175 to 2.92 µM) | MIC [2]: > 128 µg/mL

CO[C@H]1/C=C/O[C@@]2(C)Oc3c(C)c(O)c4c(c3C2=O)C2=NC3(CCN(CC(C)C)CC3)NC2=C(NC(=O)/C(C)=C\C=C\[C@H](C)[C@H](O)[C@@H](C)[C@@H](O)[C@@H](C)[C@H](OC(C)=O)[C@@H]1C)C4=O [RBT, rifabutin]
MIC [2]: 0.25 to 1 µg/mL (≈ 0.295 to 1.18 µM)

CO[C@H]1/C=C/O[C@@]2(C)Oc3c(C)c(O)c4c(O)c(c5c(nc6cc(C)ccn65)c4c3C2=O)NC(=O)/C(C)=C\C=C\[C@H](C)[C@H](O)[C@@H](C)[C@@H](O)[C@@H](C)[C@H](OC(C)=O)[C@@H]1C [RFX, rifaximin]
histological score (Test 3, comparative study) [3]: little or no inhibitory effect | MIC [2]: 1 to 2 µg/mL (≈ 1.27 to 2.54 µM) | inhibitory activity for TNF-α production over concentration range [1]: no inhibitory activity

O=C(O)c1cc(/N=N/c2ccc(S(=O)(=O)Nc3ccccn3)cc2)ccc1O [SASP, salazosulfapyridine, reference compound]
number of death during the treatment [5]: two | day from which suppression of stool score deterioration was observed ([6]; 100 mg/kg orally twice a day): from the 9th day | deaths ([6]; 100 mg/kg orally twice a day, 8 animals per group): 2 | bloody stool score vs vehicle control ([6]; 11th day, present compound 1 mg/kg (P<0.05), 3, 10 mg/kg (P<0.01) or SASP 100 mg/kg orally twice a day, Dunnett's test): not significant | stool firmness (Stool Consistency Score) vs vehicle control [6, 7]: significant differences | total stool score vs vehicle control [6, 7]: significant differences
